Experimental data from US11787816B2, “Chlorin compound, and preparation and use thereof” (Southwest Jiaotong University, priority 2021, dated 2023).

Assays:
[1] = tested on: human cervical cancer Hela cells; assay: Photosensitizer-mediated PDT, in vitro proliferation (MTT), Hela; format: cell-based; details: for cell viability (%): Hela
Method: (§1) Several kinds of tumor cells (human cervical cancer Hela cells, human hepatocellular carcinoma huh-7 cells and murine mammary carcinoma 4T1 cells) cultured in vitro from a variety of tissues were taken as cell models, so as to investigate the photodynamic effects mediated by different doses of CEFN, CEFO, Ce6 and HPPH on the three different tumor cells (n=3). The specific experimental procedures were carried out as follows.
(§2) Cells in the logarithmic growth phase were harvested and seeded in a 24-well plate. After growing to a confluence of 70-80%, the cells were randomly divided into a control group (free of drug and light irradiation), a drug group and a photodynamic group. The CEFN, CEFO, Ce6 and HPPH were added respectively in dark, and for each drug, four final concentrations 1, 2, 5, and 10 μg/mL were set with 3 replicates for each group. After the co-incubation, the groups were treated individually. Regarding the photodynamic group, the light irradiation was performed at a wavelength of 660 nm and three different light intensities, i.e., 2, 4 and 8 J/cm^2. After that, each group was digested, and were inoculated into a 96-well plate at 100 μL per well with 4 replicates for each treatment. 24 hours later, the 96-well plate was subjected to MTT assay as follows. Each well was added with 20 μL of MTT (3-4,5-dimethylthiazol-2,5-diphenyltetrazolium bromide) solution in the dark and incubated for 4 hours. The supernatant was discarded, and the residue was dissolved with 150 μL of dimethyl sulfoxide for 15 min. After that, the 96-well plate was measured by a microplate reader for the absorbance (OD value). The relative cell viability was calculated as follows: relative cell viability=OD value of experimental group/OD value of control group*100%.

[2] = tested on: human hepatocellular carcinoma huh-7 cells; assay: Photosensitizer-mediated PDT, in vitro proliferation (MTT), huh-7; format: cell-based
Method: as §1, §2

[3] = tested on: murine mammary carcinoma 4T1 cells; assay: Antitumor activity as photosensitizers on tumor-bearing mice (one PDT treatment); format: in vivo; details: for Inhibitory rate (average ± SD, %) / Tumor weight (average ± SD, g): 660 nm, 75 Joule/cm^2 6 h after dosing, 7 days after PDT; for Body weight At the begining / Body weight At the end: one PDT treatment, mice, in g (unit assumed)
Method: (§3) The murine mammary carcinoma cells (4T1 line) were subjected to adherent culture. After growing to a confluence of 70%-80%, the cells in the culture flask were routinely digested, centrifuged and counted, and then resuspended with 0.85% normal saline to a density of 1×10^7 cells/mL. The cell suspension was injected into the left lateral middle axillary subcutaneous part of […] Bal b/c healthy mice (female, aged 6-8 weeks) at 0.1 mL/mouse. When the tumor diameter, which was observed every other day, reached 0.6-0.8 cm, the mice with well-growing tumors and no ulcers on the epidermis were selected for grouped treatment.
(1) Mice with similar body weight and uniform tumor size are selected and randomly divided into 7 groups with 6 mice for each group. After inoculation for 48 h, the mice were subjected to drug administration separately from the tail vein by group.
6 h after the drug administration, the mice were fixed to expose the tumor growth site. Light irradiation was performed for 8 min, using PDT-660 photodynamic therapy equipment at a laser wavelength of 660 nm and a light dose of 75 Joule/cm^2. Then both of the mice growth and tumor growth are observed continuously. 7 days after photodynamic therapy, the animals were sacrificed. The tumor was stripped and weighed, and the body weight was recorded.

[4] = tested on: murine mammary carcinoma 4T1 cells; assay: Antitumor activity as photosensitizers on tumor-bearing mice (two PDT treatments); format: in vivo
Method: as §3
(2) Mice with similar body weight and uniform tumor size are selected and randomly divided into 4 groups with 6 mice for each group. After inoculation of 4T1 cells and the tumor volume grows to 50˜80 mm^3, the mice were subjected to a first drug administration from the tail vein by group.
6 h after the drug administration, the mice were fixed to expose the tumor growth site. As a first PDT treatment, light irradiation was performed for 8 min, using PDT-660 photodynamic therapy equipment at the laser wavelength of 660 nm and the light dose of 150 Joule/cm^2. One week later, the second PDT treatment (the dosage and lighting conditions were the same as those of the first PDT treatment) was performed. The mice were sacrificed 14 days after the treatment. The tumor was removed, weighed and recorded.

[5] = tested on: murine mammary carcinoma 4T1 cells; assay: Antitumor activity as sonosensitizers (SDT) on tumor-bearing mice; format: in vivo; details: for Inhibitory rate (average ± SD, %) / Tumor weight (average ± SD, g): SDT 1.0 MHz, 3.0 W/cm^2, 3 min, 6 h after dosing, 7 days after SDT; for Body weight At the beginning / Body weight At the end: SDT, mice, in g (unit assumed)
Method: as §3
Mice with similar body weight and uniform tumor size are selected and randomly divided into 6 groups with 6 mice for each group. 48 h after inoculation, the mice were subjected to drug administration separately from the tail vein by group.
[…] 6 h after drug administration, each group of mice was anesthetized by intraperitoneal injection with 0.2 mL of 1% pentobarbital sodium. Then the mice were fixed to allow the tumor growth site exposed. The SDT group was treated using an ultrasonic therapeutic apparatus at an impulse waveform of 1.0 MHz and power of 3.0 W/cm^2 for 3 min. 7 days after SDT, the animals were sacrificed. The tumor was stripped and weighed, and the body weight was recorded.

[6] = 0.25 mg/kg tail vein, two PDT treatments one week apart, 660 nm, 150 Joule/cm^2, 14 days after treatment
[7] = 0.25 mg/kg, two PDT treatments, mice, in g (unit assumed)

## 3-n-hexylaminomethyl-3-devinyl-chlorin e4 disodium salt [CEFN]
[1]; 1 μg/mL, 660 nm, 2 J/cm^2
  cell viability (%): 98 ± 3%
[1]; 1 μg/mL, 660 nm, 4 J/cm^2
  cell viability (%): 99 ± 1%
[1]; 1 μg/mL, 660 nm, 8 J/cm^2
  cell viability (%): 78 ± 3%
[1]; 1 μg/mL, no light
  cell viability (%): 103 ± 2%
[1]; 2 μg/mL, 660 nm, 2 J/cm^2
  cell viability (%): 78 ± 3%
[1]; 2 μg/mL, 660 nm, 4 J/cm^2
  cell viability (%): 62 ± 2%
[1]; 2 μg/mL, 660 nm, 8 J/cm^2
  cell viability (%): 51 ± 3%
[1]; 2 μg/mL, no light
  cell viability (%): 99 ± 2%
[1]; 5 μg/mL, 660 nm, 2 J/cm^2
  cell viability (%): 43 ± 3%
[1]; 5 μg/mL, 660 nm, 4 J/cm^2
  cell viability (%): 32 ± 4%
[1]; 5 μg/mL, 660 nm, 8 J/cm^2
  cell viability (%): 21 ± 3%
[1]; 5 μg/mL, no light
  cell viability (%): 106 ± 2%
[1]; 10 μg/mL, 660 nm, 2 J/cm^2
  cell viability (%): 36 ± 3%
[1]; 10 μg/mL, 660 nm, 4 J/cm^2
  cell viability (%): 17 ± 2%
[1]; 10 μg/mL, no light
  cell viability (%): 104 ± 2%
[1]; summary statement for Hela, huh-7 and 4T1 cells, no light
  toxicity to the cells when the drug is used alone without photodynamic treatment: will not lower the cell viability
[2]; 1 μg/mL, 660 nm, 2 J/cm^2
  cell viability (%): 101 ± 3%
[2]; 1 μg/mL, 660 nm, 4 J/cm^2
  cell viability (%): 78 ± 3%
[2]; 1 μg/mL, 660 nm, 8 J/cm^2
  cell viability (%): 90 ± 3%
[2]; 1 μg/mL, no light
  cell viability (%): 97 ± 2%
[2]; 2 μg/mL, 660 nm, 2 J/cm^2
  cell viability (%): 87 ± 2%
[2]; 2 μg/mL, 660 nm, 4 J/cm^2
  cell viability (%): 68 ± 2%
[2]; 2 μg/mL, 660 nm, 8 J/cm^2
  cell viability (%): 64 ± 3%
[2]; 2 μg/mL, no light
  cell viability (%): 95 ± 3%
[2]; 5 μg/mL, 660 nm, 2 J/cm^2
  cell viability (%): 61 ± 2%
[2]; 5 μg/mL, 660 nm, 4 J/cm^2
  cell viability (%): 55 ± 3%
[2]; 5 μg/mL, 660 nm, 8 J/cm^2
  cell viability (%): 47 ± 2%
[2]; 5 μg/mL, no light
  cell viability (%): 93 ± 3%
[2]; 10 μg/mL, 660 nm, 2 J/cm^2
  cell viability (%): 50 ± 2%
[2]; 10 μg/mL, 660 nm, 4 J/cm^2
  cell viability (%): 12 ± 3%
[2]; 10 μg/mL, 660 nm, 8 J/cm^2
  cell viability (%): 9 ± 2%
[2]; 10 μg/mL, no light
  cell viability (%): 93 ± 1%
[3]; 0.2 mg/kg tail vein
  Inhibitory rate (average ± SD, %): 68.5 ± 1.7%
  Tumor weight (average ± SD, g): 0.051 ± 0.003 g
[3]; 0.2 mg/kg
  Body weight At the begining: 20.6 ± 0.6
  Body weight At the end: 21.7 ± 0.5
[3]; 0.4 mg/kg tail vein
  Inhibitory rate (average ± SD, %): 82.7 ± 3.7%
  Tumor weight (average ± SD, g): 0.028 ± 0.006 g
[3]; 0.4 mg/kg
  Body weight At the begining: 20.5 ± 0.4
  Body weight At the end: 21.6 ± 0.5
[4]; [6]
  Inhibitory rate (average ± SD, %): 86.1 ± 3.5%
  Tumor weight (average ± SD, g): 0.132 ± 0.032 g
[4]; [7]
  Body weight At the beginning: 20.3 ± 0.3
  Body weight At the end: 22.4 ± 0.4
[5]; 2.5 mg/kg tail vein
  Inhibitory rate (average ± SD, %): 42.1 ± 4.2%
  Tumor weight (average ± SD, g): 0.099 ± 0.007 g
[5]; 2.5 mg/kg
  Body weight At the beginning: 20.5 ± 0.3
  Body weight At the end: 21.6 ± 0.2
[5]; 5 mg/kg tail vein
  Inhibitory rate (average ± SD, %): 66.7 ± 3.0%
  Tumor weight (average ± SD, g): 0.057 ± 0.005 g
[5]; 5 mg/kg
  Body weight At the beginning: 20.3 ± 0.2
  Body weight At the end: 21.3 ± 0.3
